Patent US20130101986A1, “In Vitro Method for obtaining Intrahepatic Fibroblasts Infected with Hepatitis C Virus” (priority 2009, published 2013)

Tested on: HCV-JFH1
Test: Test of neutralization by interferon alfa of infection of human intrahepatic fibroblasts with HCV-JFH1
Format: cell-based, hepatitis C virus
Settings: human intrahepatic fibroblasts preincubated 1 h at 37° C. with 500 U/ml of interferon alfa, infected at 0.1 FFU per cell; FIG. 8
Description: The intrahepatic fibroblasts were infected one day after being put in culture with HCV-JFH1 to a multiplicity of infection of 0.1 FFU per cell. After incubation overnight at 37° C., the cellular monolayers were washed three times with phosphate-buffered saline and then grown in standard conditions (Aoudjehane et al., Lab. Invest., 88: 973-985, 2008) in DMEM medium (Gibco) 10% FCS in the presence of penicillin and streptomycin (1%) as well as pyruvate (1%).
In order to determine whether the HCV genome is capable of replicating in intrahepatic fibroblasts inoculated with HCV-JFH1, the strands of positive RNA (genomic RNA) and the strands of negative RNA (antisense RNA) were quantified. For this purpose, the cells were taken on D3, D6 and D9 post-infection, washed in PBS buffer, then prepared using the “RNeasy minikit” extraction kit (QIAGEN S.A, Courtaboeuf, France) according to the supplier's recommendations, the cells having been lysed in 300 μl of buffer for 3.10^5 cells. The intracellular RNAs were quantified by quantitative RT-PCR specific to each strand as described by Carriere et al. (J. Med. Virol., 79: 155-160, 2007). […]

## interferon alfa
  amount of negative-strand HCV RNA: decrease
  amount of positive-strand HCV RNA: decrease
